Measured values as given in ChEMBL document CHEMBL3044657, “Identification of an antiepileptic lead compound with a more selective activity and its analogues for GABA-AT using in silico approach” (2013).
The source made the active and inactive calls. The calls are words filed in the database; no cut-off is given here.

Each compound was assayed on Mus musculus (assay: Antiepileptic activity in Mus musculus (mouse) assessed as protection against maximal electroshock-induced seizures at 300 mg/kg after 0.5 hr). Settings: not given.
Assay type: functional, organism-based
Set-up: dose 300 mg/kg

| Compound | Activity |
| --- | --- |
| CNC(=S)Nc1ccc(S(=O)(=O)Nc2nc3ccc(Cl)cc3s2)cc1 | inactive |
| C/C(=N\NC(=O)Nc1ccc(Br)cc1)c1ccc(C)cc1 | inactive |
| CCNC(=S)Nc1ccc(S(=O)(=O)Nc2nc3ccc(Cl)cc3s2)cc1 | inactive |

Species: Mus musculus
Assay: Antiepileptic activity in Mus musculus (mouse) assessed as minimum dose required to protect half or more number of animals against maximal electroshock-induced seizures after 0.5 hr
Assay type: functional
Settings: read-out: MED

| Compound | minimal effective dose |
| --- | --- |
| O=c1snc(Nc2cccc3ccccc23)n1-c1cccc2ccccc12 | 100 mg/kg |
| c1cncc(NC2=NSC(Nc3cccnc3)N2)c1 (centres undefined) | 300 mg/kg |
| O=C1C=CC(=NNC(=O)Nc2ccc([N+](=O)[O-])cc2)C=C1 | 300 mg/kg |
| O=C(N/N=C/c1ccccc1[N+](=O)[O-])Nc1ccc(Br)cc1 | 300 mg/kg |
| CCOc1ccc(NC(=O)N/N=C(\C)c2ccc(O)cc2)cc1 | 100 mg/kg |
| CCOc1ccc(NC(=O)N/N=C(\C)CC(C)=O)cc1 | 100 mg/kg |
| O=c1snc(Nc2ccncc2)n1-c1ccncc1 | 300 mg/kg |
| O=c1snc(Nc2ncccn2)n1-c1ncccn1 | 300 mg/kg |
| COc1ccc(/C=N/NC(=O)Nc2ccc(Br)cc2)cc1OC | 300 mg/kg |
| CCOc1ccc(NC(=O)N/N=C/c2ccccc2Cl)cc1 | 100 mg/kg |
| C/C(=N\NC(=O)Nc1ccc(Br)cc1)c1ccc(O)cc1 | 300 mg/kg |
| CCOc1ccc(NC(=O)N/N=C/c2ccccc2O)cc1 | 300 mg/kg |
| Cc1ccc(NC(=S)Nc2ccc(S(=O)(=O)Nc3ccc(Br)cc3)cc2)cc1 | 100 mg/kg |
| CNC(=S)Nc1ccc(S(=O)(=O)Nc2ccc(Cl)cc2)cc1 | 300 mg/kg |
| c1ccc(NC2=NSC(Nc3ccccn3)N2)nc1 (centres undefined) | 300 mg/kg |
| O=C(N/N=C/c1ccccc1Cl)Nc1ccc(Br)cc1 | 300 mg/kg |
| c1ccc2c(NC3=NSC(Nc4cccc5ccccc45)N3)cccc2c1 (centres undefined) | 100 mg/kg |
| c1cc(NC2=NSC(Nc3ccncc3)N2)ccn1 (centres undefined) | 300 mg/kg |
| O=c1snc(Nc2ccccn2)n1-c1ccccn1 | 300 mg/kg |
| C/C(=N\NC(=O)Nc1ccc(Br)cc1)c1ccccc1 | 100 mg/kg |
| CN(C)c1ccc(/C=N/NC(=O)Nc2ccc(Br)cc2)cc1 | 300 mg/kg |

| Compound | minimal effective dose |
| --- | --- |
| Cc1ccc(NC(=S)Nc2ccc(S(=O)(=O)Nc3ccc(C)cc3)cc2)cc1 | 300 mg/kg |
| O=c1snc(Nc2ccc(F)cc2)n1-c1ccc(F)cc1 | 100 mg/kg |
| CCOc1ccc(NC2=NSC(Nc3ccc(OCC)cc3)N2)cc1 (centres undefined) | 100 mg/kg |
| CNC(=S)Nc1ccc(S(=O)(=O)Nc2nc3ccc(F)cc3s2)cc1 | 300 mg/kg |
| Fc1ccc(NC2=NSC(Nc3ccc(F)cc3)N2)cc1 (centres undefined) | 100 mg/kg |
| CCNC(=S)Nc1ccc(S(=O)(=O)Nc2nc3ccc(F)cc3s2)cc1 | 300 mg/kg |
| CCOc1ccc(NC(=O)N/N=C(\C)c2ccc(Cl)cc2)cc1 | 300 mg/kg |
| O=c1snc(Nc2cccnc2)n1-c1cccnc1 | 300 mg/kg |
| CNC(=S)Nc1ccc(S(=O)(=O)Nc2nc3ccc(OC)cc3s2)cc1 | 300 mg/kg |
| CCOc1ccc(NC(=O)N/N=C(\C)c2ccccc2O)cc1 | 100 mg/kg |
| O=C(NN=C(c1ccccc1)c1ccccc1)Nc1ccc(Br)cc1 | 300 mg/kg |
| CCOc1ccc(NC(=O)N/N=C(\C)CC(C)C)cc1 | 100 mg/kg |
| Cc1ccc(NC(=S)Nc2ccc(S(=O)(=O)Nc3ccc(Cl)cc3)cc2)cc1 | 100 mg/kg |
| C/C(=N\NC(=O)Nc1ccc(Br)cc1)c1ccc([N+](=O)[O-])cc1 | 300 mg/kg |
| CCOc1ccc(Nc2nsc(=O)n2-c2ccc(OCC)cc2)cc1 | 100 mg/kg |
| CNC(=S)Nc1ccc(S(=O)(=O)Nc2ccc(Br)cc2)cc1 | 300 mg/kg |
| CC(C)=NNC(=O)Nc1ccc([N+](=O)[O-])cc1 | 300 mg/kg |
| O=C(NN=C1c2ccccc2C(=O)c2ccccc21)Nc1ccc([N+](=O)[O-])cc1 | 300 mg/kg |
| C/C(=N\NC(=O)Nc1ccc(Br)cc1)c1ccc(N)cc1 | 300 mg/kg |
| COc1cc(/C=N/NC(=O)Nc2ccc(Br)cc2)ccc1O | 300 mg/kg |
